Here are results for 46 compounds from US10159268B2, “Reduced sodium food products” (GENERAL MILLS, INC., priority 2013, dated 2018).

The nature of assay [1]: Broth DAP test: trained panel rates saltiness of compounds in simple broth. It counts as in vivo. The arrangement: key: DAP score; >7.6 indicates saltiness or salt enhancement in broth. As to conditions: single compound in simple broth; best DAP score of tested concentrations 0.1, 1 and 10 ppm; DAP score greater than 7.6 indicates saltiness or salt enhancement. The procedure:
(§1) Briefly, each individual tested compound was placed in water and in sodium solution to test saltiness and saltiness enhancement potential. Tests in water were executed in a compound concentration of 10 ppm. Tests in sodium solution were executed in compound concentrations of 0.1, 1 and 10 ppm. Two control sodium solutions with known organoleptic salt intensities were provided as references for each test. The test for individual compounds was also conducted using simple broth instead of sodium solution. A number of compound combinations identified from the Na-solution DAP test were used for the broth DAP test. Tests were executed with a trained panel of 9-12 assessors. For Na-solution DAP tests, a DAP score of greater than 3.1 indicates saltiness or salt enhancement. The DAP score can be correlated with a sodium reduction potential by subtracting 3.1 from the DAP score. […] For broth DAP tests, a DAP score of greater than 7.6 indicates saltiness or salt enhancement. The DAP score can be correlated with a sodium reduction potential by subtracting 7.6 from the DAP score.

Assay [2] in a line: Na-solution DAP test: trained panel rates saltiness of compounds in sodium solution. The arrangement: key: DAP score; >3.1 indicates saltiness or salt enhancement. The settings on record: single compound in sodium solution; best DAP score of tested concentrations 0.1, 1 and 10 ppm; DAP score greater than 3.1 indicates saltiness or salt enhancement. The assay is classed as in vivo. The procedure:
as §1

In the case of `COc1c(OC)c(OC)c2c(c1OC)c(=O)c1ccccc1n2C` [Compound 23, Melicopicine], the “DAP in Broth” value in assay [1] amounted to 8.3. In assay [2], the “DAP in Na-Sol.” value turned out to be 2.9.
With `O=C(O)/C=C/c1ccc(O)c2c1C(C(=O)OC(Cc1ccc(O)c(O)c1)C(=O)O)C(c1ccc(O)c(O)c1)O2` (stereo not drawn) [Compound 40, a 3-benzofurancarboxylic ester], the “DAP in Broth” value in assay [1] was 7.8. The “DAP in Na-Sol.” value in assay [2] worked out at 3.5.
The matching figures for `COc1cc2c(c(OC)c1OC)-c1c(cc3c(c1OC)OCO3)CC(C)C(C)C2` (stereo not drawn) [Compound 46, Schizandrin B]: 7.8 and 3.6.
Regarding `CCCCC[C@H](O)CC(=O)CCc1ccc(O)c(OC)c1` [Compound 5, [6]-Gingerol], the “DAP in Na-Sol.” value in assay [2] is 3.6.
In the case of `C=CC(C)(CC/C=C(\C)CC/C=C(\C)CC/C=C(/C)COC1OC(C)C(O)C(OC2OC(COC3OC(C)C(O)C(O)C3OC(=O)/C(C)=C/CC/C(C)=C/CC/C(C)=C/CCC(C)(C=C)OC3OC(CO)C(O)C(O)C3OC3OC(CO)C(O)C(O)C3O)C(O)C(O)C2O)C1O)OC1OC(CO)C(O)C(O)C1OC1OC(CO)C(O)C(O)C1O` (stereo not drawn) [Compound 91, Capsianoside E], the “DAP in Na-Sol.” value in assay [2] is listed as 3.7.
As to `C=CCCCCCCCCCCC[C@H](O)C[C@H](O)CO` [Compound 82, 16-Heptadecene-1,2,4-triol; Avocadene], the “DAP in Broth” value in assay [1] turned out to be 8.3. Further, in assay [2], the “DAP in Na-Sol.” value is reported as 3.8.
For the compound `CCCCCCCC(=O)CCc1ccc(O)c(OC)c1` [Compound 7, [6]-Paradol or [6]-Gingerone], the “DAP in Na-Sol.” value in assay [2] is recorded as 3.7.
Still for that read-out and setting: for `COc1c2c(cc3oc(=O)ccc13)OC(C)(C)C=C2` [Compound 27, Xanthoxyletin] the value was 3.4.
Consider `CCCCC/C=C\CCCCCCc1cc(=O)c2ccccc2n1C` [Compound 17, Evocarpine], for which the “DAP in Broth” value in assay [1] came to 8.2. The “DAP in Na-Sol.” value in assay [2] was found to be 3.6.
Consider `C=C1C(=O)OC2CC3(C)CCCC(C)C3=CC12` (stereo not drawn) [Compound 80a, Alantolactone], for which, in assay [2], the “DAP in Na-Sol.” value is reported as 3.9.
As to `CC(=O)O[C@@H]1C[C@H]2C(C)(C)C(=O)C=C[C@]2(C)[C@H]2CC[C@]3(C)C(=CC(=O)[C@H]3c3ccoc3)[C@@]21C` [Compound 74, Azadiradione], in assay [1], the “DAP in Broth” value is 7.7. Besides, the “DAP in Na-Sol.” value in assay [2] amounted to 3.2.
The matching figures for `COc1c2ccoc2c(OCC=C(C)C)c2oc(=O)ccc12` [Compound 65, Phellopterin]: 7.9 and 3.3.
Take `CCCCCCC[C@H](O)CC(=O)CCc1ccc(O)c(OC)c1` [Compound 9, 8-Gingerol]: in assay [2], the “DAP in Na-Sol.” value worked out at 3.8.
For `O=C(/C=C/C=C/c1ccc2c(c1)OCO2)N1CCCCC1` [Compound 18, Piperine], the “DAP in Broth” value in assay [1] is on record as 8.1. Moreover, the “DAP in Na-Sol.” value in assay [2] was determined as 3.8.
For `C[C@H]1[C@H](C)CC[C@]2(C(=O)O)CC[C@]3(C)C(=CC[C@@H]4[C@@]5(C)CC[C@H](O)C(C)(C)[C@@H]5CC[C@]43C)[C@H]12` [Compound 43, Ursolic acid], in that order: 8.0 and 3.7.
For the compound `COc1c(CC=C(C)C)c(=O)[nH]c2ccccc12` [Compound 61, Atanine], in assay [2], the “DAP in Na-Sol.” value was found to be 3.6.
As for `C/C=C(\C)C(=O)O[C@H]1C[C@@H](OC(C)=O)[C@@]2(C)CO[C@@H]3C2[C@@]1(C)[C@@H](CC(=O)OC)[C@]1(C)C2=C(C)[C@H](c4ccoc4)C[C@H]2O[C@H]31` (stereo partly drawn) [Compound 58, Salannin], the “DAP in Broth” value in assay [1] amounted to 8.0. The “DAP in Na-Sol.” value in assay [2] came out at 3.3.
Consider `O=C(/C=C/CC/C=C/c1ccc2c(c1)OCO2)N1CCCCC1` [Compound 14, Pipersintenamide], for which the “DAP in Na-Sol.” value in assay [2] was 3.6.
As to `C[C@@H]1C[C@H]2OC(=O)[C@@]3(C)CCC[C@](C)(C23)[C@@]1(O)CCc1ccoc1` (stereo partly drawn) [Compound 31, Marrubin], in assay [2], the “DAP in Na-Sol.” value is 3.2.
As for `COc1cc(COC(=O)CCCC/C=C/C(C)C)ccc1O` [Compound 13, Capsiate], the “DAP in Broth” value in assay [1] was found to be 7.9. Moreover, the “DAP in Na-Sol.” value in assay [2] is listed as 3.8.
Take `C/C=C(\C)C(=O)O[C@H]1[C@H](O)[C@]2(CO)[C@H](O)C[C@]3(C)C(=CCC4[C@@]5(C)CC[C@H](O[C@@H]6O[C@H](C(=O)O)C(O[C@@H]7O[C@H](CO)[C@@H](O)[C@H](O)[C@H]7O)[C@H](O)[C@H]6O[C@@H]6O[C@H](CO)[C@@H](O)[C@H](O)[C@H]6O)[C@](C)(CO)C5CC[C@]43C)[C@@H]2CC1(C)C` (stereo partly drawn) [Compound 34, Aesculioside A]: in assay [1], the “DAP in Broth” value was 7.7. Also, the “DAP in Na-Sol.” value in assay [2] worked out at 3.9.
As to `C=C[C@@]1(C)CC(=O)C2[C@]3(C)C(C[C@@H](OC(C)=O)[C@@]2(O)C1=O)C(C)(C)[C@H](O)[C@H](OC(C)=O)[C@@H]3OC(=O)c1ccccc1` (stereo partly drawn) [Compound 33, Orthosiphol M], in assay [1], the “DAP in Broth” value worked out at 7.7. Also, the “DAP in Na-Sol.” value in assay [2] is recorded as 3.4.
The matching figures for `C=CCCCCCCC(C(=O)O)C(O)CC(=O)O` (stereo not drawn) [Compound 81, a 2-octenyl-3-hydroxy-1,5-pentanedioic acid]: 7.8 and 3.2.
With `CCCCCCCCCCC[C@H](O)CC(=O)CCc1ccc(O)c(OC)c1` [Compound 1, 12-Gingerol], the “DAP in Broth” value in assay [1] was found to be 7.8. Besides, the “DAP in Na-Sol.” value in assay [2] stood at 3.6.
With `COc1cc(CNC(=O)CCCCCCC(C)C)ccc1O` [Compound 21, Dihydrocapsaicin], the “DAP in Na-Sol.” value in assay [2] was 4.
On the same count and under the same terms, for `CCC=CCC=CC=CC(O)CCCCCCCC(=O)O` (stereo not drawn) [Compound 85, 9-hydroxy-10,12,15-Octadecatrienoic acid] the value was 2.9.
In the case of `COc1cc(CC(C)C(C)Cc2ccc(O)c(OC)c2)ccc1O` (stereo not drawn) [Compound 49, Dihydrogualaretic acid], in assay [1], the “DAP in Broth” value was determined as 8.2. The “DAP in Na-Sol.” value in assay [2] turned out to be 3.6.
For the compound `C/C=C1\C(=O)CC2C3CCC4=CC(=O)CC[C@]4(C)C3CCC12C` (stereo partly drawn) [Compound 75, (Z)-Guggulsterone], the “DAP in Na-Sol.” value in assay [2] turned out to be 3.6.
With `CC1(C)CC[C@]2(C(=O)O)CC[C@]3(C)C(=CCC4[C@@]5(C)C[C@@H](O)[C@H](O)C(C)(C)C5CC[C@]43C)C2C1` (stereo partly drawn) [Compound 42, Maslinic acid, Crategolic acid], the “DAP in Broth” value in assay [1] was 8.1. The “DAP in Na-Sol.” value in assay [2] worked out at 3.1.
For the compound `COc1cc(O)c(C(/C=C/CC(O)CCc2ccc(O)cc2)c2ccc(O)cc2)c2c1C(=O)CC(c1ccc(O)cc1)O2` (stereo not drawn) [Compound 50, Epicalyxin C], the “DAP in Na-Sol.” value in assay [2] is 4.
The same measure, in the same setting: next, `C=C1C2CCC3C4(C)CCCC(C)(C(=O)O)C4CCC3(C2)C1OC(C)=O` (stereo not drawn) [Compound 94, Xylopic acid]: 4.2; `CCC(O)CC(=O)CCc1ccccc1` (stereo not drawn) [Compound 20, a 1-Ph-5-OH-3-heptanone]: 4; `COc1c(CC=C(C)C)c(=O)n(C)c2c(OC)cccc12` [Compound 25, O-Methylglycosolone]: 3.9.
Consider `COc1cc2oc(=O)ccc2c(OC)c1CC=C(C)C` [Compound 28, Toddaculin], for which the “DAP in Na-Sol.” value in assay [2] is listed as 3.6.
On to `COC1CC(OC2CCC3(C=O)C(CCC4C3CCC3(C)C(C5=CC(=O)OC5)CCC43O)C2)OC(C)C1OC1OC(CO)C(O)C(O)C1O` (stereo not drawn) [Compound 76, Apobioside], for which the “DAP in Broth” value in assay [1] was determined as 8.0. In addition, the “DAP in Na-Sol.” value in assay [2] is listed as 3.2.
Consider `CCCCCC(CC(CCc1ccc(O)c(OC)c1)OC(C)=O)OC(C)=O` (stereo not drawn) [Compound 3, [6]-Gingerdiacetate], for which, in assay [1], the “DAP in Broth” value is listed as 8.8. Further, the “DAP in Na-Sol.” value in assay [2] is listed as 4.1.
In the case of `CC(C)C(=O)c1c2c(c3oc(=O)cc(-c4ccccc4)c3c1O)CC(C(C)(C)O)O2` (stereo not drawn) [Compound 60, Mammea A/AD cyclo F], the “DAP in Broth” value in assay [1] is given as 8.1. The “DAP in Na-Sol.” value in assay [2] was 3.8.
In the case of `C/C(=C\CC/C(C)=C/CC[C@@H]1[C@@]2(C)CCC(=O)C(C)(C)C2CC[C@@]1(C)O)CC/C=C(\C)C(=O)O` (stereo partly drawn) [Compound 52, Myrrhanone B], in assay [2], the “DAP in Na-Sol.” value is 3.6.
Regarding `C=CC(C)(CC/C=C(\C)CC/C=C(\C)CC/C=C(/C)COC1OC(C)C(O)C(OC2OC(COC3OC(C)C(O)C(O)C3OC(=O)/C(C)=C/C(O)C/C(C)=C/CC/C(C)=C/CCC(C)(C=C)OC3OC(CO)C(O)C(O)C3OC3OC(CO)C(O)C(O)C3O)C(O)C(O)C2O)C1O)OC1OC(CO)C(O)C(O)C1OC1OC(CO)C(O)C(O)C1O` (stereo not drawn) [Compound 92, Capsianoside D], the “DAP in Na-Sol.” value in assay [2] is reported as 4.
Still for that read-out and setting: next, `C=C1C(=O)O[C@@H]2C[C@@]3(C)CCCC(=C)[C@@H]3C[C@H]12` [Compound 80b, Isoalantolactone]: 3.9; `CCCCCC(CC(=O)CCc1ccc(O)c(OC)c1)OC` (stereo not drawn) [Compound 8, 5-methoxy-[6]-Gingerol]: 4; `CCCCC/C=C/C(=O)CCc1ccc(O)c(OC)c1` [Compound 4, 6-Shogaol]: 3.5.
Turning to `O=c1c2ccccc2nc2n1CCc1c-2[nH]c2ccccc12` [Compound 57, Rutaecarpine], in assay [2], the “DAP in Na-Sol.” value is given as 3.1.
Still for that read-out and setting: for `COc1ccc(-c2c(O)c3c(OC)c4c(cc3oc2=O)OC(C)(C)C=C4)cc1` [Compound 26, Robustic acid] the value was 3.4.
As to `CC(=O)OC1CC(C)C2(CCC3(COC(=O)C3)O2)C2(C)CCCC(C)(C)C12` (stereo not drawn) [Compound 30], in assay [2], the “DAP in Na-Sol.” value came to 3.1.
As for `CCCCCCCCC(=O)CCc1ccc(O)c(OC)c1` [Compound 6, [7]-Paradol], the “DAP in Na-Sol.” value in assay [2] was determined as 3.8.
